Measured values taken from patent US20250208149A1, “WEE1 COMPOUND FOR TREATING UTERINE SEROUS CARCINOMA” (Recurium IP Holdings, LLC, priority 2022, published 2025).

What was measured:
Type in all cases: cell-based
[1] = test system: OV17R ovarian cancer cells; assay: Percent inhibition of cell growth, ZN-c3, LB-100 or ZN-c3+LB-100 (cell titer glow); conditions: 72 h, read-out: percent inhibition of cell growth
Experimental: (§1) FIG. 19 depicts the percent inhibition of cell growth in OV17R ovarian cancer cells after treatment with ZN-c3 alone, the PP2A catalytic inhibitor LB-100 alone, or the combination of ZN-c3+LB-100. OV17R has the PPP2R1A missense mutation S256F. Percent inhibition is calculated using cell titer glow analysis.
(§2) Following observations that both knockdown and knockout of PPP2R1A could sensitize cancer cells to Zn-C3, the effects of pharmacological inhibition of PPP2R1A with the catalytic inhibitor LB-100 were evaluated. Various cancer cell lines were treated with ZN-c3 alone, the PP2A catalytic inhibitor LB-100 alone, or the combination of ZN-c3+LB-100. As in Example 1 and Example 2, the treatment period was 72 hours and percent inhibition was calculated using cell titer glow analysis.
The ovarian cancer cell line OV17R was assessed for sensitivity to ZN-c3 alone, LB-100 alone, or the combination of ZN-c3+LB-100 (FIG. 19).

[2] = test system: HEC1B endometrial cancer cells; assay: Percent inhibition of cell growth, ZN-c3, LB-100 or ZN-c3+LB-100 after siCTRL or siPPP2R1A (cell titer glow); conditions: Homo sapiens, HEC-1B, 72 h, read-out: percent inhibition of cell growth
Experimental: (§3) FIG. 21 depicts the percent inhibition of cell growth in HEC1B endometrial cancer cells after treatment with ZN-c3 alone, the PP2A catalytic inhibitor LB-100 alone, or the combination of ZN-c3+LB-100 after siRNA mediated knockdown of PPP2R1A. […] Percent inhibition is calculated using cell titer glow analysis.
as §2
The endometrial cancer cell line HEC1B was also assessed for sensitivity to ZN-c3 alone, LB-100 alone, or the combination of ZN-c3+LB-100 following treatment with siCTRL or siPPP2R1A (FIG. 21).

[3] = test system: HEC-59 endometrial cancer cells; assay: as above; conditions: 72 hours, ZN-c3 300 nM, LB-100 1 μM
Experimental: as §3, with “20” for “21”, “HEC-59” for “HEC1B”
(§4) Various cancer cell lines were treated with ZN-c3 alone, the PP2A catalytic inhibitor LB-100 alone, or the combination of ZN-c3+LB-100. As in Example 1 and Example 2, the treatment period was 72 hours and percent inhibition was calculated using cell titer glow analysis.
The endometrial cancer cell line HEC-59 was assessed for sensitivity to ZN-c3 alone, LB-100 alone, or the combination of ZN-c3+LB-100 following treatment with siCTRL or siPPP2R1A (FIG. 20).

[4] = test system: HEC-59 endometrial cancer cells; assay: Percent inhibition of cell growth, ZN-c3, LB-100 or ZN-c3+LB-100 (cell titer glow); conditions: HEC-59 (PPP2R1A wild-type), 72 hours; ZN-c3 400 nM, LB-100 1 μM
Experimental: as §1, with “18” for “19”, “HEC-59 endometrial” for “OV17R ovarian”, “HEC-59 cell line is” for “OV17R has the”, “wild-type. […]” for “missense mutation S256F.”
as §4
The endometrial cancer cell line HEC-59 was assessed for sensitivity to ZN-c3 alone, LB-100 alone, or the combination of ZN-c3+LB-100 (FIG. 18).

## CN1CCN(C(=O)C2C(C(=O)O)[C@H]3CC[C@@H]2O3)CC1 (some centres unmarked) [LB-100, reference compound]
[1]
  inhibition at 1 µM: ~12%
[2]
  inhibition at 1 µM: 25%
[3]; HEC-59, siCTRL
  percent inhibition of cell growth: approximately half of that value
[3]; HEC-59, siPPP2R1A
  percent inhibition in siPPP2R1A treated cells compared to siCTRL treated cells: only slightly enhanced
[4]
  percent inhibition of cell growth: approximately half of that value
